According to ChEMBL document CHEMBL5728983, “Macrocyclic derivative of pyrazol[3,4-d]pyrimidin-3-one, pharmaceutical composition and use thereof” (2022):

Target: Wee1-like protein kinase (Homo sapiens, UniProt P30291)
Test: Enzymatic Activity of Wee1: In the present disclosure, Wee1 enzyme catalysis assay was carried out using the ATP-Glo Max kinase luminescence detection kit (Promega). Kinase activity was assessed by quantitative detection of the amount of ATP retained in the solution following the kinase reaction. The luminescent signal in the assay is proportional to the amount of ATP and inversely proportional to the kinase activity. The concentration of the compound in the assay ranged from 0.5 nM to 30 μM. The compound was dissolved in 10% DMSO, and 5 μL of the solution was added to 50 μL of the reaction, and the concentration of DMSO in the final reaction was 1%. The reaction was carried out at 30° C. for 50 minutes. 40 mM trishydroxymetyl aminomethane, pH 7.4, 10 mM MgCl2, 0.1 mg/ml BSA, 2 mM DTT, 0.1 mg/ml Poly (Lys, Tyr) substrate, 10 μM ATP and Wee1 were contained in the reaction mixture. After the enzymatic reaction, 50 μL of ATP-Glo Max kinase luminescence detection assay solution (Promega) was added and incubated for 15 minutes at room temperature. The luminescent signal was measured using a microplate reader. In some assays, a known Wee1 inhibitor was added as a positive control. Luminance data was analyzed using Graphpad software.

Sequence of Wee1-like protein kinase (P30291 whole entry): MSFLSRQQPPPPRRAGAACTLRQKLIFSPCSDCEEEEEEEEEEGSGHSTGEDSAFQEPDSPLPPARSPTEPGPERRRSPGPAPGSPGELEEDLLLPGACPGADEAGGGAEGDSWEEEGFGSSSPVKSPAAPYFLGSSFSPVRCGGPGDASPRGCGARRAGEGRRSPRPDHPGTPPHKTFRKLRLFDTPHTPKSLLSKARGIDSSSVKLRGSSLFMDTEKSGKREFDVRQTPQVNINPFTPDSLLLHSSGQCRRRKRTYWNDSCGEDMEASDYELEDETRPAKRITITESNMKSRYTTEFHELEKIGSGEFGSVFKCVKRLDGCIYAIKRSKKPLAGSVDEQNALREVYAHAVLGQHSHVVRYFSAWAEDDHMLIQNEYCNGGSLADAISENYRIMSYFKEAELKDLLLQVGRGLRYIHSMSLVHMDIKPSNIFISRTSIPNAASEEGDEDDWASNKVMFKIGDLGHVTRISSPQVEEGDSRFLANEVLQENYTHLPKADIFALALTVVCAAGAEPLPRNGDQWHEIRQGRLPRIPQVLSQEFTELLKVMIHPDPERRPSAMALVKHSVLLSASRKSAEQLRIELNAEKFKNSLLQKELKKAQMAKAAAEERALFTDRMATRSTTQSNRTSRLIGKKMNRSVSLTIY

Compound	IC50
CC(C)N1Cc2cc(Nc3ncc4c(=O)n5n(c4n3)-c3ccc4c(n3)N(CCC/C=C\C5)C(=O)CO4)ccc2C2(CC2)C1	10.4 nM
CC(C)N1Cc2ccc(Nc3ncc4c(=O)n5n(c4n3)-c3ccc4c(n3)N(CCC/C=C\C5)C(=O)CO4)cc2C2(CC2)C1	10.2 nM
